Source: PMC5620620, “Comparison of In Vitro Assays in Selecting Radiotracers for In Vivo P-Glycoprotein PET Imaging” (Pharmaceuticals, 2017)

What was measured:
P-gp [1] = assay: In vivo P-gp substrate classification from knockout mice and/or tariquidar-treated rats; settings: for Substrate In Vivo: brain-to-plasma or AUC ratio in at least one strain; for P-gp substrate classification in vivo: cutoff value of 2 for brain-to-plasma and AUC ratios
P-gp [2] = biological target: T1, P-gp (Homo sapiens, UniProt P08183); assay: Calcein-AM inhibition assay in MDCKII-MDR1 cells; assay type: cell-based; settings: non-radioactive compounds
T1 construct: host or cells: MDCKII (canine kidney) cells transfected with human MDR1 cDNA
Method: The calcein-AM experiment was performed in MDCKII-MDR1 cells according to methods described previously. Calcein cell accumulation in the absence and in the presence of test compounds (0,1, 1, 10, 30, 50 and 100 µM) was evaluated and the basal level of fluorescence was measured in untreated cells. EC50 values were determined by fitting the fluorescence increase (in %) versus log[dose].

[3] = after 5 min; cited from earlier work
[4] = design: method as in PMID 26043236; settings: pH 7.4; cited from earlier work
P-gp [5] = biological target: T1, P-gp; assay: Bidirectional transport of tritiated compounds in MDCKII-MDR1 cells; assay type: in vitro ADME; settings: for Substrate In Vitro: ER 0.01 µM; for Recovery of radioactivity: all experiments, A → B and B → A directions; for P-gp substrate behaviour in vitro: concentrations 0.01-50 µM and inhibitors; for ER 0.01 µM: tritiated compound 0.01 µM, Papp B→A/Papp A→B
Method: (§1) Madin-Darby canine kidney (MDCK) II cells expressing cDNAs encoding human MDR1 (MDCKII-MDR1 cells) were obtained by TNO from the Netherlands Cancer Institute. […] Cells were counted using an automatic cell counter (Millipore, Bedford, MA, USA). […] The medium was refreshed after 48 h. It has been shown, that under these conditions the human transporter protein MDR1 localizes on the apical plasma membrane of the cells.
(§2) After three days of cell culture on Transwell, the MDCKII-MDR1 monolayers are expected to have developed a transepithelial electrical resistance (TEER) of approximately 70 Ωcm^2 higher than background (empty filter without cells). At the start of each study, TEER was measured to assess the integrity of the monolayers of MDCKII-MDR1 cells in culture medium using the Millicell-ERS epithelial voltohmmeter (Millipore). Monolayers with a TEER value less than 55 Ωcm^2 above background (empty filter) were excluded from the transport assay. […] Cell monolayers were also inspected with a microscope before starting the experiments.
(§3) Transcellular transport studies were performed as described previously with minor modifications.
(§4) After the integrity assessment, culture medium was removed from the filter inserts (apical compartment (A)). The inserts were washed once with warm (37 °C) HBSS, transferred to new 12-well plates which were preincubated with HBSS/HEPES for 18 h at 37 °C, to reduce non-specific binding to the plastic, and washed with warm HBSS. The MDR1-mediated apical to basolateral (A → B) transport in MDCKII-MDR1 cell monolayers was determined by addition of 0.65 mL of a tritiated compound in concentrations of 0.01, 1 and 50 µM to the apical compartment in triplicate. A volume of 1.8 mL of HBSS/HEPES was added to the basolateral compartment. To determine basolateral to apical (B → A) transport, 1.95 mL of a tritiated compound at concentrations of 0.01, 1 and 50 µM was added to the basolateral compartment and 0.5 ml of HBSS/HEPES to the apical compartment. A 150 µL aliquot of the apical (A → B) or basolateral (B → A) compartment was taken at the start of the experiment to measure the initial concentration and to calculate the recovery of radioactivity. […] Aliquots of the apical and basolateral samples (150 and 1600 µL for A → B and 400 and 150 µL for B → A, respectively) and samples of the initial concentration were mixed with 10 mL of liquid scintillant Ultima GoldTM (PerkinElmer Inc.). Radioactivity was determined by LSC on a Tri Carb 3100TR liquid scintillation counter using QuantaSmart^TM software (PerkinElmer Inc.) in which all counts were converted to disintegrations per minute (DPM) using tSIE/AEC (transformed spectral index of external standards coupled to automatic efficiency correction). Background values were measured for each sample sequence using liquid scintillant without test samples. Recovery of radioactivity was calculated as percentage of measured total radioactivity after the experiment versus initial radioactivity.
(§5) Subsequently, the effects of MDR1-inhibitors ketoconazole and tariquidar on the bidirectional transport of the tested tritiated compounds were examined. Stock solutions of the inhibitors ketoconazole (10 mM) and tariquidar (10 mM) were prepared in DMSO. […] These concentrations were based on IC50 values that are known to block P-gp completely.
(§6) A is the surface area of the filter insert (cm^2) and C0 the measured initial concentration, calculated from total DPM on the donor side at t = 0 min (DPM/L).
(§7) To determine the ER for the test compounds, the following equation was used:ER = Papp B → A/Papp A → B(2)

P-gp (MDR1) = biological target: T2, P-gp (MDR1) (Homo sapiens, UniProt P08183); assay: as above; assay type: in vitro ADME; settings: MDCK-MDR1; for efflux ratio at 2 h, 0.01 µM: human, read-out: ER 0.01 µM; for efflux ratio at 2 h, 1 µM / efflux ratio at 2 h, 50 µM: read-out: ER
T2 construct: host or cells: MDCKII (canine kidney) cells transfected with human MDR1 cDNA
Method: as §1, §2, §3, §4, §5, §6, §7

[6] = Radioactive metabolites in plasma and brain by radio-TLC; assay type: in vivo; settings: mice, 45 min p.i.
Method: Mice were injected with radiotracers (3.5 ± 1.6 MBq, 0.1 mL, [^18F]MC198 or [^18F]KE64) in the penile vein under isoflurane anesthesia. Injections were performed with the mice in the microPET camera (microPET Focus 220, Siemens Medical Solutions, Malvern, PA, USA), simultaneously starting a 30 min dynamic emission scan. After each emission scan, a transmission scan of 515 s with a ^57Co point source was performed to correct the emission data for attenuation and scatter. Mice were terminated by cervical dislocation. Several organs and tissues were excised, weighed and radioactivity was measured in a γ-counter (LKB Wallac, Turku, Finland). Radioactivity accumulation in the organs was expressed as SUV, using the following formula: [tissue activity concentration (MBq/g)]/[injected dose (MBq)/body weight (g)]. Metabolites in the terminal plasma and brain samples were determined using a radio-TLC method described elsewhere. TLC-plates were eluted with ethylacetate/methanol 9:1 v/v (Rf [^18F]MC198 = 0.45, Rf[^18F]KE64 = 0.62). PET data were reconstructed as described previously. Inveon Research Workplace software version 4.0 (Siemens, Erlangen, Germany) was used for data analysis. All frames were summed, and PET images were co-registered with an MRI template. […] Radioactivity concentrations were converted to SUV values and plotted as time-activity curves (TAC).

P-gp and/or Bcrp = assay: Brain uptake (microPET, biodistribution) in Mdr1a/b(−/−)Bcrp1(−/−) knockout versus wild-type mice; assay type: in vivo; settings: Mdr1a/b(−/−)Bcrp1(−/−) vs wild-type mice; for Difference in whole brain time-activity curves (SUV) between knockout and wild-type: AUC from 0 to 30 min; for P-gp substrate behaviour in vivo: tracer concentrations
From the text: All animal studies were in compliance with the local ethical guidelines. Protocols (DEC 6456C) were approved by the Institutional Animal Care and Use Committee of the University of Groningen. Male FVB wild type mice (33 ± 2 g, 11–12 weeks) and Mdr1a/b^(−/−)Bcrp1^(−/−) constitutive knockout mice (31 ± 3 g, 11–12 weeks) developed from the FVB line were purchased from Taconic (Hudson, NY, USA). After arrival, animals were housed individually and acclimatized for at least 7 days in the Central Animal Facility of the University Medical Center Groningen before experiments. Mice had access to food and water ad libitum and were kept under a 12 h light-dark cycle. During experiments, mice were anesthetized with 2% isoflurane in medical air and kept at a constant temperature using electronically controlled heating pads.
Mice were injected with radiotracers (3.5 ± 1.6 MBq, 0.1 mL, [^18F]MC198 or [^18F]KE64) in the penile vein under isoflurane anesthesia. Injections were performed with the mice in the microPET camera (microPET Focus 220, Siemens Medical Solutions, Malvern, PA, USA), simultaneously starting a 30 min dynamic emission scan. After each emission scan, a transmission scan of 515 s with a ^57Co point source was performed to correct the emission data for attenuation and scatter. Mice were terminated by cervical dislocation. Several organs and tissues were excised, weighed and radioactivity was measured in a γ-counter (LKB Wallac, Turku, Finland). Radioactivity accumulation in the organs was expressed as SUV, using the following formula: [tissue activity concentration (MBq/g)]/[injected dose (MBq)/body weight (g)]. Metabolites in the terminal plasma and brain samples were determined using a radio-TLC method described elsewhere. TLC-plates were eluted with ethylacetate/methanol 9:1 v/v (Rf [^18F]MC198 = 0.45, Rf[^18F]KE64 = 0.62). PET data were reconstructed as described previously. Inveon Research Workplace software version 4.0 (Siemens, Erlangen, Germany) was used for data analysis. All frames were summed, and PET images were co-registered with an MRI template. A whole brain volume of interest (VOI) based on the MRI template was generated. Radioactivity concentrations were converted to SUV values and plotted as time-activity curves (TAC).

Log D7.4 = assay type: physicochemical; settings: pH 7.4, this study
P-gp (human MDR1) = test system: T3, P-gp (human MDR1); assay: Bidirectional transport of tritiated compounds in MDCKII-MDR1 cells; assay type: in vitro ADME; settings: dog, MDCK-MDR1
T3 construct: host or cells: MDCKII (canine kidney) cells transfected with human MDR1 cDNA

T2 sequence (P08183 whole entry): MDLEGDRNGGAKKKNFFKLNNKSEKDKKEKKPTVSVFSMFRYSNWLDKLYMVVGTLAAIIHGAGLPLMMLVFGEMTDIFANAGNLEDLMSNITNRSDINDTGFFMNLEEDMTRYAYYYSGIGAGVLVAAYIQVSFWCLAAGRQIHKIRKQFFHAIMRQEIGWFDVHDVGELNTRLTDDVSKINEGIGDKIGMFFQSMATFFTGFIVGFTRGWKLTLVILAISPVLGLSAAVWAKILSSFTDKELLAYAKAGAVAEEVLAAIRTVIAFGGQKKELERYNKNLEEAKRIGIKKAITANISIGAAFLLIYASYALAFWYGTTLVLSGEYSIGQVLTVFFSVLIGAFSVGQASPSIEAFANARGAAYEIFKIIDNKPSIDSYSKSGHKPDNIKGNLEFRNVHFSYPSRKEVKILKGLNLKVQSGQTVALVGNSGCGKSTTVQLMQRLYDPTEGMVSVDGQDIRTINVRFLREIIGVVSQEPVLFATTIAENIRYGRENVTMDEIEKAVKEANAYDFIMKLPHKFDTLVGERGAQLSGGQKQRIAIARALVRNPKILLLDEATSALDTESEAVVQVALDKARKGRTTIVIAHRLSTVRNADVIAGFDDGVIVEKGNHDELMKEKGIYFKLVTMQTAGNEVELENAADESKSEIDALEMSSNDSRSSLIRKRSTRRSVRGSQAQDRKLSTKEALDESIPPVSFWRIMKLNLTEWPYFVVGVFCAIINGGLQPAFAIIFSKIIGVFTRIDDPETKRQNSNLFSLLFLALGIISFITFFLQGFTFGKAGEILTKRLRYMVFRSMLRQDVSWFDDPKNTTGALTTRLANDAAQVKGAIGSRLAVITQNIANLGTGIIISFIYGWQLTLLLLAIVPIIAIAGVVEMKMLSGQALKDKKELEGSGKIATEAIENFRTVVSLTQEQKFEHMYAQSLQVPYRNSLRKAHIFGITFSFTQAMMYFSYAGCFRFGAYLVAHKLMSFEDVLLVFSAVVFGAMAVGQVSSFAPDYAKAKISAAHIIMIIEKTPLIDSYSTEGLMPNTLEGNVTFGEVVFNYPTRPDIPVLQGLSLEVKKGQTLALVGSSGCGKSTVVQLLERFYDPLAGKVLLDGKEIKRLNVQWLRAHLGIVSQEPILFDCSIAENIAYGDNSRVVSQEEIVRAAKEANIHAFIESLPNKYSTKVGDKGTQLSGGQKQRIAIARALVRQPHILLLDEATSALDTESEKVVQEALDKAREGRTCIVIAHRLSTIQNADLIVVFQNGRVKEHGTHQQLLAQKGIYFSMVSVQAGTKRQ
T1 sequence (P08183 whole entry): as above

## COc1ccc(CCN(CCF)CCC[C@](C#N)(c2ccc(OC)c(OC)c2)C(C)C)cc1OC [N-FeVer, (R)-N-[^18F]fluoroethylverapamil]
P-gp [1]
  Substrate In Vivo: + (in vivo brain-to-plasma or AUC ratio > 2 in at least one strain)
P-gp [2]
  EC50: 1100 nM
[3]
  Parent compound, of total activity in plasma: 46%
[4]
  Log D7.4: 2.0
P-gp [5]; MDCKII-MDR1 cells
  Substrate In Vitro: + (Definition as substrate (+) in vitro was ER > 2)
P-gp [5]
  Recovery of radioactivity: ≥ 76%
P-gp (MDR1)
  efflux ratio at 2 h, 0.01 µM: 2.8

## COc1cc2c(cc1OC)CN(CC/C=C1\CCCc3c(OCCF)cccc31)CC2 [MC198, (E)-2-(3-(5-(2-Fluoroethoxy)-3,4-dihydronaphthalen-1(2H)-ylidene)propyl)-6,7-dimethoxy-1,2,3,4-tetra-hydroisoquinoline]
P-gp [1]
  Substrate In Vivo: + (in vivo brain-to-plasma or AUC ratio > 2 in at least one strain)
  P-gp substrate classification in vivo: weak substrates
P-gp [2]
  EC50: 270 nM
[6]
  Fraction of intact parent compound in plasma: 34%
P-gp and/or Bcrp
  Difference in whole brain time-activity curves (SUV) between knockout and wild-type: 1.7 fold
  P-gp substrate behaviour in vivo: substrates for P-gp and/or Bcrp in vivo
Log D7.4
  logD: 2.3
P-gp [5]; MDCKII-MDR1 cells
  Substrate In Vitro: + (Definition as substrate (+) in vitro was ER > 2)
  P-gp substrate behaviour in vitro: some affinity but very low capacity for P-gp mediated transport
  ER 0.01 µM: above 2
P-gp (MDR1); dog, MDCKII-MDR1 cells, 1 µM
  efflux ratio at 2 h, 1 µM: < 2
P-gp (MDR1); dog, MDCKII-MDR1 cells
  efflux ratio at 2 h, 50 µM: < 2
P-gp (MDR1)
  efflux ratio at 2 h, 0.01 µM: 2.1

## COc1cc2c(cc1OC)CN(Cc1ccc(-c3ccc(OCCF)cc3)cc1)CC2 [MC224]
[4]
  Log D7.4: 2.9

## COc1cc2c(cc1OC)CN(CCCC1CCCc3c(OCCF)cccc31)CC2 (stereo not shown) [MC225]
P-gp [1]
  Substrate In Vivo: + (in vivo brain-to-plasma or AUC ratio > 2 in at least one strain)
[4]
  Log D7.4: 3.0

## C[C@H]1O[C@@H](O[C@H]2[C@@H](O)C[C@H](O[C@H]3[C@@H](O)C[C@H](O[C@H]4CC[C@@]5(C)[C@H](CC[C@@H]6[C@@H]5C[C@@H](O)[C@]5(C)[C@@H](C7=CC(=O)OC7)CC[C@]65O)C4)O[C@@H]3C)O[C@@H]2C)C[C@H](O)[C@@H]1O [[^3H]Digoxin, digoxin]
P-gp (human MDR1)
  Papp A→B at 2 h, 0.05 µM: < 1 ×10⁻⁶ cm/s
  Papp B→A at 2 h, 0.05 µM: > 15 ×10⁻⁶ cm/s

## COc1cc2c(cc1OC)CN(CCCCOc1ccc(-c3ccc(OCCF)cc3)cc1)CC2 [KE64, 2-(4-(4′-(2-Fluoroethoxy)biphenyl-4-yloxy)butyl)-6,7-dimethoxy-1,2,3,4-tetrahydroisoquinoline]
P-gp [1]
  Substrate In Vivo: + (in vivo brain-to-plasma or AUC ratio > 2 in at least one strain)
  P-gp substrate classification in vivo: weak substrates
P-gp [2]
  EC50: 14 nM
[6]
  Fraction of intact parent compound in plasma: 26%
P-gp and/or Bcrp
  Difference in whole brain time-activity curves (SUV) between knockout and wild-type: 1.6 fold
  P-gp substrate behaviour in vivo: moderate P-gp substrate in vivo
P-gp and/or Bcrp; listed as [^18F]KE64
  P-gp substrate behaviour in vivo: substrates for P-gp and/or Bcrp in vivo
Log D7.4
  logD: 3.2
P-gp [5]; MDCKII-MDR1 cells, all Papp values
  Papp values in both directions (A → B and B → A): < 3e-06 cm/s
P-gp (MDR1)
  efflux ratio at 2 h, 0.01 µM: 1.9

## COc1ccc([C@@](C#N)(CCCNCCc2ccc(OCCF)c(OC)c2)C(C)C)cc1OC [O-FeVer, (R)-O-[^18F]fluoroethylnorverapamil]
P-gp [1]
  Substrate In Vivo: + (in vivo brain-to-plasma or AUC ratio > 2 in at least one strain)
P-gp [2]
  EC50: 2400 nM
[3]
  Parent compound, of total activity in plasma: 20%
[4]
  Log D7.4: 1.6
P-gp [5]; MDCKII-MDR1 cells, 0.01 µM + ketoconazole 25 µM
  ER after inhibition with ketoconazole: higher than 2
P-gp [5]; MDCKII-MDR1 cells
  Substrate In Vitro: + (Definition as substrate (+) in vitro was ER > 2)
  P-gp substrate behaviour in vitro: behaved like a P-gp substrate
  ER 0.01 µM: > 30
P-gp [5]
  Recovery of radioactivity: ≥ 76%
P-gp (MDR1); dog, MDCKII-MDR1 cells, 0.01 µM
  Papp A→B at 2 h, 0.01 µM: < 2 ×10⁻⁶ cm/s
P-gp (MDR1); dog, MDCKII-MDR1 cells, 1 µM
  Papp A→B at 2 h, 1 µM: < 2 ×10⁻⁶ cm/s
  efflux ratio at 2 h, 1 µM: > 30
P-gp (MDR1); dog, MDCKII-MDR1 cells
  efflux ratio at 2 h, 50 µM: > 2
P-gp (MDR1)
  efflux ratio at 2 h, 0.01 µM: 37
